Reference: PubChem BioAssay AID2060607 (Molecular Pharmacology Branch, DTP, NCI, 2025)

System: 876862-298-R-J1-PDC complex spheroids, viability % test/control
Test: Anticancer human tumor 876862-298-R-J1-PDC patient-derived endometrial carcinoma cell line growth inhibition [CLK]
Conditions: for IC50: curve of first compound; for viability, T/C: stronger effect = lower value
Text: A high-throughput screen of multi-cell type tumor spheroids was designed to identify active combinations of […] and targeted small molecules. Complex spheroids include a stromal component modeled by human endothelial cells (HUVEC) and fibroblasts modeled by human mesenchymal stem cells (MSCs). The concentration ranges selected for each drug and investigational agent were based upon clinically achievable concentrations if the clinical Cmax of the agent was known.
Compounds. The drugs and investigational agents: cirtuvivint (SM08502; NSC835563), CC-671 (NSC850746), vemurafenib (NSC761431), tapotoclax (NSC804041), sotorasib (NSC818433), adagrasib (NSC831453), MRTX-1133 (NSC836407), BAY2416964 (NSC825713), copanlisib (NSC816437), inavolisib (NSC800729), abemaciclib (NSC768073), osimertinib (NSC779217), entinostat (NSC756642), eltanexor (KPT-8602, NSC794443), venetoclax (NSC766270), ceralasertib (NSC777638), bortezomib (NSC756655), olaparib (NSC753686), talazoparib (NSC767125), alisertib (NSC759677), peposertib (NSC802822), gemcitabine (NSC613327), 5-fluorouracil (NSC19893), SN-38 (NSC673596), oxaliplatin (NSC266046), paclitaxel (NSC125973), and doxorubicin (NSC123127), were obtained from the National Cancer Institute (NCI) Developmental Therapeutics Program Chemical Repository. The FDA-approved anticancer drug set is available from the Developmental Therapeutics Program at https://dtp.cancer.gov/organization/dscb/obtaining/available plates.htm. […] The stock solutions were prepared in dimethyl sulfoxide (DMSO, Sigma-Aldrich, St. Louis, MO, cat. D2650), except for the platinum complexes which were prepared in saline (Quality Biological, Gaithersburg, MD, cat. 114-055-101), at 800-fold the tested concentration and stored at -70 degrees C prior to their use. All drugs and investigational agents were tested over a range starting from a high concentration at or near the clinical Cmax and decreasing in half-log increments. If the clinical Cmax for an agent had not been determined, the highest concentration tested was 10 microM.
Cell Culture. All cells were maintained in an incubator at 37 degrees C and 5% CO2 with 95% humidity. The PDC lines were cultured according to standard operating procedures established by the NCI PDMR. Briefly, all PDCs were thawed and cultured in Matrigel-coated flasks prepared with a working solution of 1X Ham's F-12 nutrient mix, without supplementation (Invitrogen, Waltham, MA, cat. 11765054), 100 U/mL penicillin-streptomycin (Invitrogen, cat. 15140122), and 2.5% Matrigel (Corning Inc., Corning, NY, cat. 354248) for the first three passages. The 947758-054-R-J2-PDC line was cultured in 6B/Colon 1A media, which includes advanced DMEM/F-12 (Thermo Fisher Scientific, cat. 12634028), 10 mM HEPES (Thermo Fisher Scientific, cat. 15630080), 1X GlutaMAX supplement (Thermo Fisher Scientific, cat. 35050061), 0.1 mg/mL primocin (InvivoGen, cat. ant-pm-2), 10% defined fetal bovine serum, heat inactivated (HyClone Laboratories Inc., cat. SH30070.03HI), 1.25 mM N-Acetyl-L-cysteine (Sigma-Aldrich, cat. A9165), 10 mM nicotinamide (Sigma-Aldrich, cat. N0636), 1X B-27 supplement (Thermo Fisher Scientific, cat. 17504044), 1X N-2 supplement (Thermo Fisher Scientific, cat. 17502048), and 10 microM Y-27632 dihydrochloride (Tocris Bioscience, cat. 1254). The 876862-298-R-J1-PDC was cultured in 6E media, which includes all 6B/Colon 1A media components plus 50% L-WRN conditioned media (ATCC, cat. CRL-3276), 50 ng/mL recombinant human EGF recombinant protein (hEGF; Thermo Fisher Scientific, cat. PHG0311), 10 ng/mL recombinant human fibroblast growth factor 10 (hGFG-10; PeproTech, cat. 100-26), 1 ng/mL recombinant human fibroblast growth factor 2 (hFGF-2; PeproTech, cat. 100-18B), and 1 µM prostaglandin E2 (PGE2; Tocris, cat. 2296). The 227483-062-R1-J1-PDC line was cultured in Panc media, containing all 6E components except hFGF-2, with the addition of 500 nM SB-431542 (Selleckchem, cat. S1067) and 10 nM gastrin (Tocris, cat. 3006). […]

[1] = second compound 0.0316 µM, first compound 0.0316 µM
[2] = second compound 0.0316 µM, first compound 0.1 µM
[3] = second compound 0.0316 µM, first compound 0.316 µM
[4] = second compound 0.0316 µM, first compound 1 µM
[5] = second compound 0.0316 µM, first compound 3.16 µM
[6] = second compound 0.0316 µM, first compound 10 µM
[7] = second compound 0.1 µM, first compound 0.0316 µM
[8] = second compound 0.1 µM, first compound 0.1 µM
[9] = second compound 0.1 µM, first compound 0.316 µM
[10] = second compound 0.1 µM, first compound 1 µM
[11] = second compound 0.1 µM, first compound 3.16 µM
[12] = second compound 0.1 µM, first compound 10 µM
[13] = second compound 0.316 µM, first compound 0.0316 µM
[14] = second compound 0.316 µM, first compound 0.1 µM
[15] = second compound 0.316 µM, first compound 0.316 µM
[16] = second compound 0.316 µM, first compound 1 µM
[17] = second compound 0.316 µM, first compound 3.16 µM
[18] = second compound 0.316 µM, first compound 10 µM
[19] = second compound 1 µM, first compound 0.0316 µM
[20] = second compound 1 µM, first compound 0.1 µM
[21] = second compound 1 µM, first compound 0.316 µM
[22] = second compound 1 µM, first compound 1 µM
[23] = second compound 1 µM, first compound 3.16 µM
[24] = second compound 1 µM, first compound 10 µM
[25] = second compound 3.16 µM, first compound 0.0316 µM
[26] = second compound 3.16 µM, first compound 0.1 µM
[27] = second compound 3.16 µM, first compound 0.316 µM
[28] = second compound 3.16 µM, first compound 1 µM
[29] = second compound 3.16 µM, first compound 3.16 µM
[30] = second compound 3.16 µM, first compound 10 µM
[31] = second compound 10 µM, first compound 0.0316 µM
[32] = second compound 10 µM, first compound 0.1 µM
[33] = second compound 10 µM, first compound 0.316 µM
[34] = second compound 10 µM, first compound 1 µM
[35] = second compound 10 µM, first compound 3.16 µM
[36] = second compound 10 µM, first compound 10 µM
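Note: spheroids exposed to drugs for 7 days before readout.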
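Throughout, for viability, T/C: 100% = DMSO vehicle control wells.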

## COc1cccc2c1C(=O)c1c(O)c3c(c(O)c1C2=O)CC(O)(C(=O)CO)CC3OC1CC(N)C(O)C(C)O1 (stereo unspecified) + CN1CCN(c2cc(C(=O)Nc3cc4cc(-c5cnn(C)c5)ccc4cn3)ccn2)CC1
Second compound 0.0316 µM
  IC50: < 31.6 nM
Second compound 0.1 µM
  IC50: < 31.6 nM
Second compound 0.316 µM
  IC50: < 31.6 nM
Second compound 1 µM
  IC50: < 31.6 nM
Second compound 3.16 µM
  IC50: < 31.6 nM
Second compound 10 µM
  IC50: < 31.6 nM
[1]
  viability, T/C: 31.7%
[2]
  viability, T/C: 11.8%
[3]
  viability, T/C: 7.2%
[4]
  viability, T/C: 5.47%
[5]
  viability, T/C: 0.87%
[6]
  viability, T/C: 4.47%
[7]
  viability, T/C: 19.7%
[8]
  viability, T/C: 11.4%
[9]
  viability, T/C: 8.05%
[10]
  viability, T/C: 3.31%
[11]
  viability, T/C: 1.71%
[12]
  viability, T/C: 4.36%
[13]
  viability, T/C: 1.75%
[14]
  viability, T/C: 1.55%
[15]
  viability, T/C: 1.57%
[16]
  viability, T/C: 0.79%
[17]
  viability, T/C: 1.62%
[18]
  viability, T/C: 3.91%
[19]
  viability, T/C: 0.91%
[20]
  viability, T/C: 0.64%
[21]
  viability, T/C: 0.76%
[22]
  viability, T/C: 0.97%
[23]
  viability, T/C: 1.41%
[24]
  viability, T/C: 4.08%
[25]
  viability, T/C: 1.18%
[26]
  viability, T/C: 1.91%
[27]
  viability, T/C: 0.9%
[28]
  viability, T/C: 0.76%
[29]
  viability, T/C: 2.8%
[30]
  viability, T/C: 3.09%
[31]
  viability, T/C: 0.55%
[32]
  viability, T/C: 0.59%
[33]
  viability, T/C: 1.41%
[34]
  viability, T/C: 0.97%
[35]
  viability, T/C: 0.51%
[36]
  viability, T/C: 1.61%

## CC(CO)NC(=O)c1cc(-c2ccc(Cl)cc2)nn(-c2cnn(C)c2)c1=O (stereo unspecified) + CN1CCN(c2cc(C(=O)Nc3cc4cc(-c5cnn(C)c5)ccc4cn3)ccn2)CC1
Second compound 0.0316 µM
  IC50: > 10000 nM
Second compound 0.1 µM
  IC50: 319 nM
Second compound 0.316 µM
  IC50: < 31.6 nM
Second compound 1 µM
  IC50: < 31.6 nM
Second compound 3.16 µM
  IC50: < 31.6 nM
Second compound 10 µM
  IC50: < 31.6 nM
[1]
  viability, T/C: 94.8%
[2]
  viability, T/C: 81.7%
[3]
  viability, T/C: 69.5%
[4]
  viability, T/C: 68.8%
[5]
  viability, T/C: 67.5%
[6]
  viability, T/C: 57.3%
[7]
  viability, T/C: 53.9%
[8]
  viability, T/C: 52.5%
[9]
  viability, T/C: 49%
[10]
  viability, T/C: 46.2%
[11]
  viability, T/C: 49.5%
[12]
  viability, T/C: 43.7%
[13]
  viability, T/C: 5.52%
[14]
  viability, T/C: 5.79%
[15]
  viability, T/C: 7.05%
[16]
  viability, T/C: 8.98%
[17]
  viability, T/C: 8.34%
[18]
  viability, T/C: 8.71%
[19]
  viability, T/C: 1.36%
[20]
  viability, T/C: 1.36%
[21]
  viability, T/C: 2.15%
[22]
  viability, T/C: 1.19%
[23]
  viability, T/C: 1.66%
[24]
  viability, T/C: 1.71%
[25]
  viability, T/C: 1.12%
[26]
  viability, T/C: 1.53%
[27]
  viability, T/C: 2.58%
[28]
  viability, T/C: 1.7%
[29]
  viability, T/C: 2.81%
[30]
  viability, T/C: 2.69%
[31]
  viability, T/C: 1.23%
[32]
  viability, T/C: 1.96%
[33]
  viability, T/C: 2.08%
[34]
  viability, T/C: 2.68%
[35]
  viability, T/C: 1.84%
[36]
  viability, T/C: 2.5%

## COc1c(OCCCN2CCOCC2)ccc2c3n(c(=NC(=O)c4cnc(N)nc4)nc12)CCN3 + CNC(=O)c1ccc(Nc2nc(OC3CCCC3)c3c(-c4ccc5nc(C)oc5c4)c[nH]c3n2)c(OC)c1
Second compound 0.0316 µM
  IC50: 22.8 nM
Second compound 0.1 µM
  IC50: < 3.16 nM
Second compound 0.316 µM
  IC50: < 3.16 nM
Second compound 1 µM
  IC50: < 3.16 nM
Second compound 3.16 µM
  IC50: < 3.16 nM
Second compound 10 µM
  IC50: < 3.16 nM
Second compound 0.0316 µM, first compound 0.00316 µM
  viability, T/C: 63.1%
Second compound 0.0316 µM, first compound 0.01 µM
  viability, T/C: 67.3%
[1]
  viability, T/C: 43.5%
[2]
  viability, T/C: 22.6%
[3]
  viability, T/C: 15.8%
[4]
  viability, T/C: 18%
Second compound 0.1 µM, first compound 0.00316 µM
  viability, T/C: 45.5%
Second compound 0.1 µM, first compound 0.01 µM
  viability, T/C: 35.1%
[7]
  viability, T/C: 25.3%
[8]
  viability, T/C: 16.6%
[9]
  viability, T/C: 16.6%
[10]
  viability, T/C: 18.4%
Second compound 0.316 µM, first compound 0.00316 µM
  viability, T/C: 37.4%
Second compound 0.316 µM, first compound 0.01 µM
  viability, T/C: 32.6%
[13]
  viability, T/C: 22.6%
[14]
  viability, T/C: 18.1%
[15]
  viability, T/C: 13.4%
[16]
  viability, T/C: 14.9%
Second compound 1 µM, first compound 0.00316 µM
  viability, T/C: 29.2%
Second compound 1 µM, first compound 0.01 µM
  viability, T/C: 22.1%
[19]
  viability, T/C: 18.4%
[20]
  viability, T/C: 13.6%
[21]
  viability, T/C: 12%
[22]
  viability, T/C: 12.6%
Second compound 3.16 µM, first compound 0.00316 µM
  viability, T/C: 22.1%
Second compound 3.16 µM, first compound 0.01 µM
  viability, T/C: 17%
[25]
  viability, T/C: 12.5%
[26]
  viability, T/C: 9.46%
[27]
  viability, T/C: 9.04%
[28]
  viability, T/C: 7.24%
Second compound 10 µM, first compound 0.00316 µM
  viability, T/C: 17.3%
Second compound 10 µM, first compound 0.01 µM
  viability, T/C: 16.9%
[31]
  viability, T/C: 13.3%
[32]
  viability, T/C: 9.74%
[33]
  viability, T/C: 6.96%
[34]
  viability, T/C: 6.64%
